Assay [1] concerns isolated peripheral neutrophils. Kind of assay: Neutrophil respiratory burst and hydrogen peroxide production after stimulation by fMLP or PMA. The assay is classed as cell-based. Particulars: isolated peripheral neutrophils from normal mice or humans. As to the method:
(§1) In isolated peripheral neutrophils from normal mice or humans, the responses of neutrophils to stimulation by the chemotactic peptide, fMLP, or by the phorbol ester, PMA, was evaluated. […] It was known that the […], p38, is required for the respiratory burst that follows neutrophil activation. […] BM neutrophils have been isolated from normal and Camk4−/− mice and p38 activation in response to PMA has been evaluated.

The next assay has as its system p38. Kind of assay: p38 activation in neutrophils in response to fMLP or TPA. Particulars: in response to either fMLP or TPA. The assay is classed as cell-based, mice or humans. As to the method:
as §1

`COc1ccc(S(=O)(=O)N(CCO)c2ccccc2CN(C)C/C=C/c2ccc(Cl)cc2)cc1` [KN-93]: in assay [1], the hydrogen peroxide production result is “completely inhibited” and the respiratory burst result is “completely inhibited”. In the assay with p38, the p38 activation result was “prevented”.

Source of the values: patent US7105312B2, “Ca2+/calmodulin-dependent protein kinase IV” (Duke University, priority 2001, dated 2006).
